Test results reported in paper PMC10856454, “Discovery of Novel Antitumor Small-Molecule Agent with Dual Action of CDK2/p-RB and MDM2/p53” (Molecules, 2024).

Assays:
CDK2 = biological target: T1, CDK2 (Homo sapiens, UniProt P24941); assay: Kinase antagonist activity assay (TR-FRET), CDK2; format: biochemical
T1 construct: purchased Thermo Fisher Scientific
Method: (§1) The compounds were solubilized with DMSO (Solarbio Life Sciences, Beijing, China), and 11 concentrations were serially diluted at 3-fold; 100 nL of compound was added to 384-well plates, 5 μL of 2 × enzyme mixture (Thermo Fisher Scientific, Waltham, MA, USA) was added, and 5 μL of buffer was added instead of the complete inhibition control wells. Then, 1000 rpm centrifugation was performed for 30 s followed by a 15 min incubation at 23 °C. Next, 5 μL of 2 × MLight-MBP peptide (PerkinElmer, Waltham, MA, USA) was added to each well, with 1000 rpm centrifugation for 30 s and incubation at 23 °C for 90 min. At the end of the incubation, the reaction was terminated with buffer containing 15 mM EDTA and 2 nM Eu-anti-P-MBP antibody (PerkinElmer, Waltham, MA, USA), centrifuged at 1000 rpm for 1 min, and incubated at 23 °C for 60 min; the plates were read on a Perkin Elmer Envision ([…]).

[1] = system: p-Rb, p-CDK2 in HCT116 cells; assay: Western blot of CDK2 pathway proteins in HCT116 cells; format: cell-based
Method: Total protein from HCT116, OVCAR3 cells and tissues was collected and homogenized in RIPA buffer. The total cellular protein extract was electrophoresed on 12% SDS-polyacrylamide gels and then transferred to a PVDF membrane (Thermo Fisher Scientific, Waltham, MA, USA). Primary antibodies were incubated overnight at 4 °C and secondary antibodies were incubated at room temperature for 1.5 h. Imaging was performed using Image Quant LAS4000 (GE, Boston, MA, USA).

[2] = Pharmacokinetics study in rats; format: in vivo
Method: The pharmacokinetics study was created as described. […] Approximately 200 μL of whole blood was collected into heparin-coated tubes at 0.083, 0.25, 0.5, 1, 2, 3, 4, 6, 8, 12, and 24 h after dosing. Plasma was collected immediately by centrifugation (8000× g, 5 min, room temperature). Blood was placed in a heparinized Eppendorf™ tube. Plasma was centrifuged, and the concentration of compounds in the sample was determined by LCMS/MS after pre-treatment. Drug-concentration data were processed in a […] using WinNonlin™ 6.3 (Pharsight, Mountain View, CA, USA).

OVCAR3 cells [3] = assay: Cell proliferation assay (Celltiter-Glo), OVCAR3; format: cell-based; conditions: Homo sapiens, OVCAR-3, 120 h; OVCAR3 (overexpression of CCNE1), five days
Method: Celltiter-Glo Luminescent Cell Viability Assay (Promega, Madison, WI, USA) was used to detect cell viability according to the manufacturer’s instructions. This assay is a homogeneous method of determining the number of viable cells in a culture based on quantitation of the ATP present, an indicator of metabolically active cells. Cells were digested and paved in white-bottomed 96-well plates with 1000 cells/100 μL cell suspension solution; then, different concentrations of compounds were added the next day. TOV-21G and HCT116 were placed in the incubator for three days and OVCAR3 for five days. Then, 100 μL Celltiter-Glo solution was added and mixed for 5 min; the luminous intensity of each well was detected with a spectrophotometer (BioTek, Winooski, VT, USA). The experiment was repeated three times to calculate the cell survival rate.

HCT116 cells = assay: Cell scratch test (migration), HCT116; format: cell-based; conditions: 24 h
Method: (§2) Cells were inoculated into six-well plates as long as they spread to the bottom of the wells after wall attachment. After 24 h of wall attachment, cells were scratched with a 200 μL pipette tip and then replaced with low serum medium (1% FBS) containing different concentrations of compounds. Spot photographs were taken at 0 h and 24 h after the scratch was made. Data analysis was performed using Adobe Photoshop 2021 (Adobe Systems Software Ireland Ltd., San Jose, CA, USA) and Image J2 (National Institutes of Health, Bethesda, MD, USA).

hERG = biological target: T2, hERG (Homo sapiens, UniProt Q12809); assay: hERG assay in CHO cells stably expressing hERG; format: cell-based; conditions: maximum concentration of 30 μM
T2 construct: expressed in transfected cells; host or cells: CHO cells
Method: This test method is a reference to a previous study. CHO cells stably expressing hERG were cultured with medium containing 10% FBS, penicillin (100 U/mL), and streptomycin (100 μg/mL) in DMEM/F12 in an incubator at 37 °C, 5% CO2. Cultures were passaged in a 1:5 ratio every 48 h. The medium consisted of 90% F12, 10% FBS, G418 (100 μg/mL), and hygromycin B (100 μg/mL). On the day of the assay, the current should reach a steady state for at least 1 min prior to administration of the compounds, and the test current was measured again after 5 min of stimulation with different concentrations of the drug.

[4] = Liver microsomal stability, mouse; format: in vitro ADME; conditions: Mice liver microsomes
Method: Compounds were incubated with mouse, rat, and human liver microsomal samples and NADPH at 37 °C for 5, 10, 20, 30, or 60 min. The reaction was terminated with a cold acetonitrile solution containing tolbutamide. Compound retention was determined by LC-MS/MS. The retention times, chromatographic acquisition, and chromatographic integration of compounds and positive control substances were analyzed using Analyst (AB Sciex, Framingham, MA, USA).

CDK4 = biological target: T3, CDK4 (Homo sapiens, UniProt P11802); assay: Kinase antagonist activity assay (TR-FRET), CDK4; format: biochemical
T3 construct: purchased Thermo Fisher Scientific
Method: as §1

CDK1 = biological target: T4, CDK1 (Homo sapiens, UniProt P06493); assay: Kinase antagonist activity assay (TR-FRET), CDK1; format: biochemical
T4 construct: purchased Thermo Fisher Scientific
Method: as §1

OVCAR3 cells [5] = assay: Cell scratch test (migration), OVCAR3; format: cell-based; conditions: 24 h
Method: as §2

[6] = both sexes, rat, plasma, iv, 2 mg/kg i.v.
[7] = both sexes, rat, plasma, iv, 2 mg/kg, 2 mg/kg i.v.
[8] = both sexes, rat, plasma, po, 5 mg/kg i.g.
[9] = both sexes, rat, plasma, po, 5 mg/kg, 5 mg/kg i.g.

T4 sequence (P06493 whole entry): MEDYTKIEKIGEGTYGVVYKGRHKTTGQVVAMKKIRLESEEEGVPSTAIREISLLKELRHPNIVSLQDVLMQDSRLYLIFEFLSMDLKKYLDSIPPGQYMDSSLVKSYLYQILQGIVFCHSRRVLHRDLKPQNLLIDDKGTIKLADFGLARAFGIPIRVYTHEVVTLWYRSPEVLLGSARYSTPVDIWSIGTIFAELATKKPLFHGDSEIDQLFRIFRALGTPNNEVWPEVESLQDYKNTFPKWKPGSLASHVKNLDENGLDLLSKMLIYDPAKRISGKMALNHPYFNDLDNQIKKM
T4 sequence (P14635 whole entry partner): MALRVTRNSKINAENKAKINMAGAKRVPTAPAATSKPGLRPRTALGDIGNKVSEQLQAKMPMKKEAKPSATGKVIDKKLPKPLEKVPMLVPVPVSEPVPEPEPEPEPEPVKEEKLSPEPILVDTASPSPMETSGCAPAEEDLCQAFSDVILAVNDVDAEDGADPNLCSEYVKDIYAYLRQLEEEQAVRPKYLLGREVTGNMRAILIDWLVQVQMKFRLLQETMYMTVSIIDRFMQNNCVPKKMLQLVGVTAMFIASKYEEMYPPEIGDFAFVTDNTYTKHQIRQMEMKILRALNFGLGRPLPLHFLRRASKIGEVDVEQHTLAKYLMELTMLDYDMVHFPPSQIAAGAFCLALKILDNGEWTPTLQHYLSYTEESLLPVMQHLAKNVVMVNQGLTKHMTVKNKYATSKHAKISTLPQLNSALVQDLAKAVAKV
T3 sequence (P11802 whole entry): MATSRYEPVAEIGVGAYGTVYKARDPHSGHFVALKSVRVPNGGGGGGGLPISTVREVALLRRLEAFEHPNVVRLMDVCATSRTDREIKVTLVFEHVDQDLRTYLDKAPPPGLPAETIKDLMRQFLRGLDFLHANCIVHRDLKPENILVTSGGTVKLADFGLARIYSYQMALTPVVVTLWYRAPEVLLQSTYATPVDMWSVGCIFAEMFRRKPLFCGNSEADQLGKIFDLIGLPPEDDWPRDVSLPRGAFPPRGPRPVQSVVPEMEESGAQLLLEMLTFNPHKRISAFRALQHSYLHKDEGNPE
T3 sequence (P24385 whole entry partner): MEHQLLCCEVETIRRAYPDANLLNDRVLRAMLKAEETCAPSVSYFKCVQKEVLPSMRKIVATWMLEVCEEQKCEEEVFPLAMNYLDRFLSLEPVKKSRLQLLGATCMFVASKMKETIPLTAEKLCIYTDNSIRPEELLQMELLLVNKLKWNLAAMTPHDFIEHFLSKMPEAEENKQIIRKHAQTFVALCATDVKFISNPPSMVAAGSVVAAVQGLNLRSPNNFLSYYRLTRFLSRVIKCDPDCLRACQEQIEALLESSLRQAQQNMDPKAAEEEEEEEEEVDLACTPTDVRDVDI
T2 sequence (Q12809 whole entry): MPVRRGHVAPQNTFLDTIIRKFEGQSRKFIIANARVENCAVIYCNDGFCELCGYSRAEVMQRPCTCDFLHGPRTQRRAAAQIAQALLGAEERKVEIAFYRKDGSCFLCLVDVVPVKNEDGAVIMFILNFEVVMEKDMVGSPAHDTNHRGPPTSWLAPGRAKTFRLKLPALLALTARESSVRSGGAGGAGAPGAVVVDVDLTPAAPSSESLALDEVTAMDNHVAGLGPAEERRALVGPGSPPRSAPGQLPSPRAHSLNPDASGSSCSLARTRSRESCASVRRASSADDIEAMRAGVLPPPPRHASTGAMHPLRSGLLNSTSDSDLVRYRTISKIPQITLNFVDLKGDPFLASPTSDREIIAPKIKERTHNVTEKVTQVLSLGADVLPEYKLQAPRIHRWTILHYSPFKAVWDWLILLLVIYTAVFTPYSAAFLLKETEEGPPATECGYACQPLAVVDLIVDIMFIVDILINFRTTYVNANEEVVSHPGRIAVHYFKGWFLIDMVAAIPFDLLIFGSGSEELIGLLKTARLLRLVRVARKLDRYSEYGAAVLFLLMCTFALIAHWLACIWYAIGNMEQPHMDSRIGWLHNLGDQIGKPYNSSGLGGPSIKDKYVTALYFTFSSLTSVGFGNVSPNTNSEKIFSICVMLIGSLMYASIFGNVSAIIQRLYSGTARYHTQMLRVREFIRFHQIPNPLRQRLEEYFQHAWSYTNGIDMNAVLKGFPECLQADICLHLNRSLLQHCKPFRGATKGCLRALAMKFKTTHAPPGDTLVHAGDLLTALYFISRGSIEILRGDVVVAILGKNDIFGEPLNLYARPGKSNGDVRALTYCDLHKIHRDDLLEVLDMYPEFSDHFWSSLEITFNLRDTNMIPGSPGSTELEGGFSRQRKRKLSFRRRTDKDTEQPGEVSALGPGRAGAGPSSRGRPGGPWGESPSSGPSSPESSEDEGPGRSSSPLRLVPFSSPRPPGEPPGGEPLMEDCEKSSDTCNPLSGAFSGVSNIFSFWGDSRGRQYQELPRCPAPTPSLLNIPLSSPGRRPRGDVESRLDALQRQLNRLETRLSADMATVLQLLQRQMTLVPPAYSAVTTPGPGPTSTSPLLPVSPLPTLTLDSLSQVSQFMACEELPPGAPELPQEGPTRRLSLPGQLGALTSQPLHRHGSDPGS

CC1(C)CCN1C(=O)O[C@@H]1CC[C@H](c2cc(NC(=O)Cc3ccc(N4CCCC4=O)cc3)n[nH]2)C1 [III-13]
IC50 (CDK2): 0.0026 µM | IC90 (CDK2): 0.0262 µM | expression of p-Rb [1]: significantly reduced | p-CDK2 expression [1]: no significant effect | CL/F ([2]; 2 mg/kg i.v.): 41.2 mL/min/kg | Vz/F ([2]; 2 mg/kg i.v.): 1.3 ± 0.374 L/kg | AUClast ([2]; 2 mg/kg i.v., 2 mg/kg): 2.052 ± 0.337 µM·h | T1/2 ([2]; 2 mg/kg i.v., 2 mg/kg): 22.2 ± 7.8 min | AUClast ([2]; 5 mg/kg i.g., 5 mg/kg): 0.293 ± 0.0646 µM·h | T1/2 ([2]; 5 mg/kg i.g., 5 mg/kg): 50.4 ± 7.2 min | Cmax [2, 6]: 5500 ± 2310 nM | MRT last [2, 6]: 27 ± 15 min | AUC(0-t) [2, 7]: ~2.05 µM·h | half-life [2, 7]: ~22.2 min | bioavailability ([2]; both sexes, rat, plasma, oral, 5 mg/kg, 5 mg/kg i.g. vs 2 mg/kg i.v., read-out: F (oral bioavailability)): ~3.57% | Cmax [2, 8]: 389 ± 87.9 nM | MRT last [2, 8]: 51 ± 6 min | AUC(0-t) [2, 9]: ~0.293 µM·h | Tmax [2, 9]: ~15 min | half-life [2, 9]: ~50.4 min | IC50 (OVCAR3 cells [3]): 0.115 µM | IC90 (OVCAR3 cells [3]): 0.398 µM | migration rate (HCT116 cells): decreased significantly | cardiotoxicity in hERG assay (hERG): no cardiotoxicity | Remaining (T = 60 min) ([4]; 60 min): 1.29% | CLint scaled ([4]; mouse): 840 mL/min/kg | half-life ([4]; mouse, NADPH, 37 °C): 6.53 min | IC50 (CDK4): 6.24 µM | IC90 (CDK4): 23.1 µM | IC50 (CDK1): 0.528 µM | IC90 (CDK1): 5.64 µM | migration rate (OVCAR3 cells [5]): decreased significantly
